Laboratory results reported in patent US20230339915A1 (Vertex Pharmaceuticals Incorporated, priority 2020, published 2023).

Key:
[1] = molecular target: purified Z-AAT protein from human plasma (Homo sapiens (Human), UniProt P01009, E366K); assay: Biochemical Assay (Z-AAT Elastase Activity Assay); details: purified Z-AAT pre-incubated with compound 1 hour, then human neutrophil elastase and fluorescent substrate
Summary of the method: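 Purified plasma Z-AAT (20 nM) preincubated with compounds 1 h at room temperature, then 3 nM human neutrophil elastase added in PBS + 0.01% BRIJ35 for 30 min to form suicide complex. Residual elastase activity read immediately by fluorescence after adding 300 μM MeOSuc-AAPV-AMC substrate solution.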

[2] = molecular target: NL20 human bronchial epithelial cells expressing human Z-AAT (Homo sapiens (Human), UniProt P01009, E366K); assay: AAT Function Assay (MSD Assay NL20-SI Cell Line); type: cell-based; details: functionally active AAT (AAT-hNE complex, MSD) in supernatant of NL20 cells expressing human Z-AAT; read-out: NL20 Functional EC50
Chain of NL20 human bronchial epithelial cells expressing human Z-AAT (P01009 25-418 E366K limits assumed): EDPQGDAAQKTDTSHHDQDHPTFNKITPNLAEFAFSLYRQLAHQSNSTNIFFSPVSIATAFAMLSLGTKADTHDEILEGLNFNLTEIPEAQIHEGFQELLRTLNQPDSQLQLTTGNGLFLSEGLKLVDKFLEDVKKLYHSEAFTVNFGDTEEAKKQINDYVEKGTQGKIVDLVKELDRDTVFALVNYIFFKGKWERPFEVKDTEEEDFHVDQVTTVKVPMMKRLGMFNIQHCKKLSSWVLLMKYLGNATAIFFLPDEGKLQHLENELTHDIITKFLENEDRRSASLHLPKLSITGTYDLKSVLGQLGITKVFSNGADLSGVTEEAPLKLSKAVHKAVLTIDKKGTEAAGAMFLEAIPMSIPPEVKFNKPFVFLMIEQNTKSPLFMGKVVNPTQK
Summary of the method: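 Secreted active Z-AAT was measured by MSD electrochemiluminescence: supernatants (45-fold total dilution) were incubated with human neutrophil elastase to form AAT–elastase complexes, captured by goat anti-AAT and detected with labelled anti-elastase. Cells were doxycycline-induced (0.1 μM) NL20 bronchial cells treated with compound overnight; M-AAT standard curve.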

Chain of purified Z-AAT protein from human plasma (P01009 25-418 E366K limits assumed): as above

Row | IC50 [1] [nM] | EC50 [2] [nM] | Compound
1 | > 30000 | > 2000 | Cc1cc(-n2c(C3CCOCC3)c([C@H]3CC[C@@H](C(=O)O)CC3)c3cc(O)ccc32)ccc1F [Compound 55]
2 | > 30000 | > 2000 | CO[C@]1(C(=O)O)C[C@H](c2c(C3CCOCC3)n(-c3ccc(F)c(C)c3)c3ccc(O)cc32)C1 [Compound 15]
3 | > 30000 | > 2000 | Cc1cc(-n2c(C3CCOCC3)c(CC3(C(=O)O)CC3)c3cc(O)ccc32)ccc1F [Compound 103]
4 | > 30000 | 500 to 2000 | Cc1cc(-n2c(C(C)C)c(C#N)c3cc(O)c(F)cc32)ccc1F [Compound 193, 6-fluoro-1-(4-fluoro-3-methylphenyl)-5-hydroxy-2-isopropyl-1H-indole-3-carbonitrile]
5 | > 30000 | > 2000 | C[C@]1(C(=O)O)C[C@@H](c2c(C3CCOCC3)n(-c3ccc(F)c(Cl)c3)c3ccc(O)cc32)C1 [Compound 28]
6 | > 5000 | > 2000 | CC(C)c1c(C(C)CCC(=O)O)c2cc(O)ccc2n1-c1ccc(F)cc1 (stereo not drawn) [Compound 92]
7 | > 5000 | 500 to 2000 | CC(C)c1c([C@H]2C[C@](C)(C(=O)O)C2)c2cc(O)ccc2n1-c1ccc(F)c(Cl)c1 [Compound 75]
8 | > 30000 | > 2000 | Cc1cc(-n2c(C(C)C)c(CC(C)C(=O)O)c3cc(O)ccc32)ccc1F (single isomer, unassigned) [Compound 101]
9 | > 30000 | > 2000 | Cc1cc(-n2c(C)c(C#N)c3cc(O)cc(N)c32)ccc1F [Compound 212, 7-amino-1-(4-fluoro-3-methyl-phenyl)-5-hydroxy-2-methyl-indole-3-carbonitrile]
10 | > 5000 | > 2000 | Cc1cc(-n2c(C(C)C)c([C@H]3C[C@@H](C(=O)NS(C)(=O)=O)C3)c3cc(O)ccc32)ccc1F [Compound 219, Cis-3-[1-(4-fluoro-3-methyl-phenyl)-5-hydroxy-2-isopropyl-indol-3-yl]-N-methylsulfonyl-cyclobutanecarboxamide]
11 | > 30000 | > 2000 | Cc1cc(-n2c(C(C)C)c(C3CCOC(C(=O)O)C3)c3cc(O)ccc32)ccc1F (stereo not drawn) [Compound 65]
12 | > 5000 | 500 to 2000 | Cc1cc(-n2c(C3CCOCC3)c([C@H]3C[C@](C)(C(=O)O)C3)c3cc(O)ccc32)ccc1F [Compound 99]
